Reference: US8299070B2, “Indole compounds and pharmaceutical use thereof” (Japan Tobacco Inc., priority 2009, dated 2012)

Target: T1, hITK enzyme (FLAG-tagged full-length hITK) (Homo sapiens, UniProt Q08881)
T1 construct: strongly expressing FLAG-tagged full-length hITK in Sf9 cells; FLAG; made in house; host or cells: Sf9 insect cells (ITK); Escherichia coli (GST-SLP76 substrate)
T1 sequence (Q08881 1-620): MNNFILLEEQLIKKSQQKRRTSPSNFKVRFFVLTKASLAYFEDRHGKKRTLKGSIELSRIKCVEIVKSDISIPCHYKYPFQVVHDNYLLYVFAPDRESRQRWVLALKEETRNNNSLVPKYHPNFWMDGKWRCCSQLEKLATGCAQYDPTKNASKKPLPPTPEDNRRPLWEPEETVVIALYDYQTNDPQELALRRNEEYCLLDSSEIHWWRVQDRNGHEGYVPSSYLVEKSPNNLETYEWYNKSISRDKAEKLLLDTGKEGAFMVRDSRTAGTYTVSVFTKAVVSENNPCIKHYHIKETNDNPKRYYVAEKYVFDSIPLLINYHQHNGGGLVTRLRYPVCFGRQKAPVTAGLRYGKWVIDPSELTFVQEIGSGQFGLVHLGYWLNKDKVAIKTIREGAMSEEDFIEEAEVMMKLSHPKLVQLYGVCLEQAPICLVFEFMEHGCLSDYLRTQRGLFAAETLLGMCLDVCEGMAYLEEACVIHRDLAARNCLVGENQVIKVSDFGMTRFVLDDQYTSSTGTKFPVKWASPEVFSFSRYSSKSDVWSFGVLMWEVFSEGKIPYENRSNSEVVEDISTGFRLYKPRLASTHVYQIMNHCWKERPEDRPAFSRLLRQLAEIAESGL
Assay: ITK inhibitory activity (HTRF kinase assay, biotinylated GST-SLP76 substrate)
Format: biochemical
Protocol: (1) Preparation of hITK Enzyme
hITK enzyme was prepared by strongly expressing FLAG-tagged full-length hITK in Sf9 cells, and purifying same by anti-FLAG antibody column.
(2) Preparation of biotinylated GST-SLP76
Biotinylated GST-SLP76 was prepared by strongly expressing GST-tagged SLP76 (aa95-175) in Escherichia coli, purifying same by glutathion sepharose column and biotinylating same.
(3) Preparation of Solution
(i) buffer for dilution: 20 mmol/L 3-(N-morpholino)propanesulfonic acid (pH 7.0) (DOJINDO LABORATORIES), 10 mmol/L magnesium chloride (Sigma-Aldrich Corporation), 1 mmol/L dithiothreitol (Nacalai Tesque, Inc.), 0.1% gelatin (Sigma-Aldrich Corporation)
(ii) substrate solution: 0.2 μg/mL biotinylated GST-SLP76, 100 μmol/L ATP (Sigma-Aldrich Corporation), prepared with buffer for dilution
(iii) test compound solution: test compound, 50% dimethyl sulfoxide (DMSO), prepared with buffer for dilution
(iv) enzyme solution: 50 ng/mL hITK enzyme, prepared with buffer for dilution
(v) control solution: solution after removal of test compound from the mixture of the above-mentioned (i), (ii) and (iii)
(vi) blank solution: solution after removal of ATP from the mixture of the above-mentioned (i), (ii) and (iii)
(vii) detection buffer: 0.1 μg/mL Anti-Phosphotyrosine (PT66)-Cryptate (Cisbio), 2.5 μg/mL streptavidin-binding XL665 (Cisbio), 50 mmol/L 4-(2-hydroxyethyl)-1-piperazineethanesulfonic acid (pH 7.4) (Nacalai Tesque, Inc.), 30 mmol/L EDTA (NipponGene), 0.1% TritonX (Sigma-Aldrich Corporation), 200 mmol/L potassium fluoride (Wako Pure Chemical Industries, Ltd.), 0.05% bovine serum albumin (Sigma-Aldrich Corporation) (4) Measurement of ITK Inhibitory Activity
A substrate solution (25 μL/well), a test compound solution (5 μL/well) and an enzyme solution (20 μL/well) were added into 96 well half-area white plate (plate, Corning Incorporated 3642) to start a kinase reaction. The plate was stood still at room temperature for 10 min. Then, a detection buffer (50 μL/well) was added to the plate. After 2 hr from the addition of the detection buffer, fluorescence intensity at 620 nm (excited at 337 nm), and fluorescence intensity at 665 nm ([…]) were measured by a fluorescence microplate reader.
The Ratio (fluorescence intensity at 665 nm/fluorescence intensity at 620 nm×10000) of each test compound was calculated from the measured fluorescence intensity. Simultaneously, the measurement was performed using a blank solution and a control solution, and % of control value of each test compound was calculated from the following formula. % of control=(Ratio of test compound−Ratio of blank)/(Ratio of control−Ratio of blank)×100 ITK inhibitory rate (%)=100−(% of control)
The IC50 value was calculated from the test compound concentrations at 2 points sandwiching 50% ITK inhibitory rate.
In the test for the compounds of Examples 380 and 381, the ATP concentration of the substrate solutions was 6 μmol/L.

[1] = IC50 calculated from the 2 test compound concentrations sandwiching 50% ITK inhibitory rate

Structure (SMILES) | IC50 [1] [nM] | IC50 (ATP concentration of the substrate solution 6 μmol/L (Examples 380 and 381)) [nM]
CC(O)C(=O)N(C)c1ccc2cc(-c3n[nH]c4c3CCC(C)(C)C4)[nH]c2c1 (stereo not drawn) [Example 46] | 5 | –
CN(C(=O)CN1CCCCC1)c1ccc2cc(-c3n[nH]c4c3CCC(C)(C)C4)[nH]c2c1 [Example 79] | 13 | –
CN(C(=O)OCc1ccccc1)c1ccc2cc(-c3n[nH]c4c3CCC(C)(C)C4)[nH]c2c1 [Example 3, benzyl N-{2-(6,6-dimethyl-4,5,6,7-tetrahydro-1H-indazol-3-yl)-1H-indol-6-yl}-N-methylcarbamate] | 39 | –
CNCC(=O)N(C)c1ccc2cc(-c3n[nH]c4c3CCC(C)(C)C4)[nH]c2c1 [Example 126] | 8 | –
CC1(C)CCc2c(-c3cc4ccc(NC(N)=O)cc4[nH]3)n[nH]c2C1 [Example 29] | 85 | –
CC1(C)CCc2c(-c3cc4ccc(N(CCO)C(=O)[C@H]5CC[C@H](O)CC5)cc4[nH]3)n[nH]c2C1 [Example 234] | 16 | –
CN(C(=O)C(O)CO)c1ccc2cc(-c3n[nH]c4c3CCC(C)(C)C4)[nH]c2c1 (stereo not drawn) [Example 43] | 6 | –
CC(C(=O)N(C)c1ccc2cc(-c3n[nH]c4c3CCC(C)(C)C4)[nH]c2c1)N1CCCCC1=O (stereo not drawn) [Example 133] | 10 | –
CC(NC(=O)c1ccc2[nH]c(-c3n[nH]c4c3CCC(C)(C)C4)cc2c1)C(C)(C)C (stereo not drawn) [Example 299] | 74 | –
CN1CCN(C(=O)c2ccc3cc(-c4n[nH]c5c4CCC(C)(C)C5)[nH]c3c2)CC1 [Example 14] | 40 | –
CC(C)CC(=O)N(C)c1ccc2cc(-c3n[nH]c4c3CCCC4)[nH]c2c1 [Example 361] | 20 | –
CC(C)CC(=O)N(C)c1ccc2cc(-c3n[nH]c4c3CCC(C)(C)C4)[nH]c2c1 [Example 40] | 6 | –
CCC(=O)N(C)c1ccc2[nH]c(-c3n[nH]c4c3CCC(C)(C)C4)cc2c1 [Example 340] | 129 | –
CCC(=O)N(C)c1ccc2cc(-c3n[nH]c4c3CC(O)C(C)(C)C4)[nH]c2c1 (stereo not drawn) [Example 373] | 8 | –
Cn1cccc1CNC(=O)c1ccc2[nH]c(-c3n[nH]c4c3CCC(C)(C)C4)cc2c1 [Example 319] | 46 | –
CC1(C)CCc2c(-c3cc4ccc(N5CCC(C6CCCCC6)C5=O)cc4[nH]3)n[nH]c2C1 (stereo not drawn) [Example 250] | 139 | –
CC1(C)CCc2c(-c3cc4ccc(C(=O)N5CCC(O)CC5)cc4[nH]3)n[nH]c2C1 [Example 16] | 25 | –

Structure (SMILES) | IC50 [1] [nM] | IC50 (ATP concentration of the substrate solution 6 μmol/L (Examples 380 and 381)) [nM]
CCC(=O)N(C)c1ccc2cc(-c3n[nH]c4c3CCC(C)(C)C4)[nH]c2c1 [Example 32] | 4 | –
CN(CCO)C(=O)c1ccc2[nH]c(-c3n[nH]c4c3CCC(C)(C)C4)cc2c1 [Example 304] | 27 | –
CO[C@H]1CC[C@H](C(=O)N(C)c2ccc3cc(-c4n[nH]c5c4CCC(C)(C)C5)[nH]c3c2)CC1 [Example 82] | 7 | –
CC(CO)NC(=O)c1ccc2cc(-c3n[nH]c4c3CCC(C)(C)C4)[nH]c2c1 (stereo not drawn) [Example 20] | 47 | –
CC1(C)CCc2c(-c3cc4cc(C(=O)NC(CO)CO)ccc4[nH]3)n[nH]c2C1 [Example 328] | 26 | –
COC1CCN(C(C)C(=O)N(C)c2ccc3cc(-c4n[nH]c5c4CCC(C)(C)C5)[nH]c3c2)CC1 (stereo not drawn) [Example 113] | 9 | –
CCCC(=O)N(C)c1ccc2cc(-c3n[nH]c4c3CCC(C)(C)C4)[nH]c2c1 [Example 38] | 5 | –
CC(C(=O)N(C)c1ccc2cc(-c3n[nH]c4c3CCC(C)(C)C4)[nH]c2c1)N1CCCCC1 (stereo not drawn) [Example 122] | 20 | –
CC1(C)CCc2c(-c3cc4ccc(N5CCOC5=O)cc4[nH]3)n[nH]c2C1 [Example 208] | 29 | –
CO[C@@H]1CCCN(C(C)C(=O)N(C)c2ccc3cc(-c4n[nH]c5c4CCC(C)(C)C5)[nH]c3c2)C1 (stereo partly drawn) [Example 117] | 6 | –
CN(C(=O)CC1CCCC1)c1ccc2cc(-c3n[nH]c4c3CCC(C)(C)C4)[nH]c2c1 [Example 92] | 10 | –
CN(C)CCN(C(=O)CC1CCCCC1)c1ccc2cc(-c3n[nH]c4c3CCC(C)(C)C4)[nH]c2c1 [Example 219] | 4 | –
CN(C(=O)CC1CCC(=O)N1)c1ccc2cc(-c3n[nH]c4c3CCC(C)(C)C4)[nH]c2c1 (stereo not drawn) [Example 143] | 3 | –
CC1COCC(=O)N1C(C)C(=O)N(C)c1ccc2cc(-c3n[nH]c4c3CCC(C)(C)C4)[nH]c2c1 (stereo not drawn) [Example 152] | 14 | –
C[C@H](C(=O)N(C)c1ccc2cc(-c3n[nH]c4c3CCC(C)(C)C4)[nH]c2c1)N1CCOCC1 [Example 381] | – | 2
CN(C(=O)CO)c1ccc2[nH]c(-c3n[nH]c4c3CCC(C)(C)C4)cc2c1 [Example 343] | 135 | –
CN(C(=O)c1ccccc1)c1ccc2cc(-c3n[nH]c4c3CC(O)CC4)[nH]c2c1 (stereo not drawn) [Example 367] | 75 | –

Next, values leading:

IC50 [1] [nM] | IC50 (ATP concentration of the substrate solution 6 μmol/L (Examples 380 and 381)) [nM] | Structure (SMILES)
2 | – | CC1CCC(=O)N1CC(=O)N(C)c1ccc2cc(-c3n[nH]c4c3CCC(C)(C)C4)[nH]c2c1 (stereo not drawn) [Example 136]
2 | – | CC(C)C(=O)N(C)CC(=O)N(C)c1ccc2cc(-c3n[nH]c4c3CCC(C)(C)C4)[nH]c2c1 [Example 199]
< 3 | – | CN(C(=O)CN1CCCC1=O)c1ccc2cc(-c3n[nH]c4c3CCC(C)(C)C4)[nH]c2c1 [Example 83]
3 | – | CO[C@H]1CC[C@@H](C(=O)N(CCO)c2ccc3cc(-c4n[nH]c5c4CCC(C)(C)C5)[nH]c3c2)CC1 [Example 240]
2 | – | CN(C(=O)CN1CCCC(C)(C)C1=O)c1ccc2cc(-c3n[nH]c4c3CCC(C)(C)C4)[nH]c2c1 [Example 174]
1 | – | CCN(C(=O)CN(C)C(C)=O)c1ccc2cc(-c3n[nH]c4c3CCC(C)(C)C4)[nH]c2c1 [Example 291]
3 | – | CN(C(=O)CN1CC(O)CC1=O)c1ccc2cc(-c3n[nH]c4c3CCC(C)(C)C4)[nH]c2c1 (stereo not drawn) [Example 164]
< 3 | – | CN(C(=O)CC1CCCO1)c1ccc2cc(-c3n[nH]c4c3CCC(C)(C)C4)[nH]c2c1 (stereo not drawn) [Example 71]
2 | – | CC1(C)CCc2c(-c3cc4ccc(N(CCO)C(=O)[C@H]5CC[C@@H](O)CC5)cc4[nH]3)n[nH]c2C1 [Example 248]
< 3 | – | CN(C(=O)COC1CCOC1)c1ccc2cc(-c3n[nH]c4c3CCC(C)(C)C4)[nH]c2c1 (stereo not drawn) [Example 87]
< 1 | – | CCN(C(=O)CN1C[C@H](C)OCC1=O)c1ccc2cc(-c3n[nH]c4c3CCC(C)(C)C4)[nH]c2c1 [Example 279]
1 | – | CN(C(=O)CN1CCC(C)(C)CC1=O)c1ccc2cc(-c3n[nH]c4c3CCC(C)(C)C4)[nH]c2c1 [Example 189]
3 | – | CN(C(=O)CC1CCCOC1)c1ccc2cc(-c3n[nH]c4c3CCC(C)(C)C4)[nH]c2c1 (stereo not drawn) [Example 103]
2 | – | CN(C)CCCN(C(=O)CC1CCOCC1)c1ccc2cc(-c3n[nH]c4c3CCC(C)(C)C4)[nH]c2c1 [Example 226]
2 | – | C[C@H]1COCC(=O)N1CC(=O)N(C)c1ccc2cc(-c3n[nH]c4c3CCC(C)(C)C4)[nH]c2c1 [Example 172]
3 | – | CN(C(=O)COC1CCOCC1)c1ccc2cc(-c3n[nH]c4c3CCC(C)(C)C4)[nH]c2c1 [Example 88]
3 | – | CC1CN(CC(=O)N(C)c2ccc3cc(-c4n[nH]c5c4CCC(C)(C)C5)[nH]c3c2)CC(C)O1 (stereo not drawn) [Example 118]
